According to patent publication US4000985A, “Azo dyes having a high solubility in petroleum fuels” (Morton-Norwich Products, Inc., priority 1975, dated 1977):

Tests used:
Type in all cases: physicochemical
[1] = Storage solubility in No. 1 and No. 2 Heating Oil at ambient temperature and -10° C.
Description: The resultant mixtures were stored at ambient temperatures (20° to 25° C.) and at -10° C. Where any separation of dye occurred, the dye content of the remaining solution was determined colorimetrically.

[2] = Rate and extent of dissolution in No. 1 and No. 2 Heating Oils at 25° C. (colorimetric); details: 25° C.
Description: The solubility properties of each of the dyes of Examples 16-41 were evaluated in the fuels No. 1 and No. 2 Heating Oils, respectively. The procedure was as follows:
Where the dyes are solid dyes, excess of pulverized solid dye, far beyond that which would dissolve, i.e., 30 to 35% dye, was added to the respective oils at 25° C. and agitated at constant speed. Samples were removed at 1, 10 and 20 minute intervals, filtered, and the amount of dissolved dye determined colorimetrically.
The tarry non-solid dyes were charged in proportions of 50-60% dye to 50-40% oil rather than 30-35% used for the solid dyes. In fact, it was very difficult to stir the tarry dye-fuel oil mixture at a dye concentration of 50%. Samples for these dyes were taken after 2 minutes. The longer initial time for the tarry dyes was to permit reasonable contact between solvent and the viscous, condensed dye.

[3] = Physical state of the isolated dye; details: for Physical State of Dye: after isolation according to Procedure B
From the text: alternatively, the crude liquid dye may be taken up with a volatile solvent and the solvent removed during the drying process to yield a non-volatile liquid colorant.

[4] = Dissolution of 58% dye in 42% fuel by warming, cooling to 25° C. (six heating/diesel oils); details: 58% by weight dye, warmed, cooled to 25° C.
Description: No. 2 Regular Grade Diesel Oil
Each dye-fuel oil mixture was warmed with stirring and then cooled to 25° C.

[5] = General statements on solubility and dissolution rate in petroleum fuels
[6] = Storage solubility in xylene at 20°-25° C. and -10° C.
Description: The solutions obtained were stored at 20°-25°C. and at -10° C. Where any separation of dye occurred, the dye content of the remaining solution was determined colorimetrically.

**Q.** Which results are given for `CCCCC(CC)CNc1ccc2ccccc2c1N=Nc1ccc(N=Nc2ccccc2)cc1` (stereo not shown) [Example 2]?
**A.** Solubility (% by Wt.) ([1]; No. 1 Heating Oil, 20° C.-25° C. (Table 8)): 4.4 % by Wt.; Solubility (% by Wt.) ([1]; No. 2 Heating Oil, 20° C.-25° C. (Table 9)): 5.1 % by Wt.; Percent Dissolved ([2]; No. 1 Fuel Oil, 1 Minute, aminoazobenzene dyes (Table 4)): 3.43%; Percent Dissolved ([2]; No. 1 Fuel Oil, 10 Minutes, aminoazobenzene dyes (Table 4)): 3.87%; Percent Dissolved ([2]; No. 1 Fuel Oil, 20 Minutes, aminoazobenzene dyes (Table 4)): 4.47%; Percent Dissolved ([2]; No. 2 Fuel Oil, 1 Minute, aminoazobenzene dyes (Table 5)): 4.63%; Percent Dissolved ([2]; No. 2 Fuel Oil, 10 Minutes, aminoazobenzene dyes (Table 5)): 4.90%; Percent Dissolved ([2]; No. 2 Fuel Oil, 20 Minutes, aminoazobenzene dyes (Table 5)): 5.13%; Physical State of Dye at 20° C. [3]: Solid; Physical State of Dye [3]: Solid; behavior of dye-fuel oil mixture on cooling/storage [4]: precipitated as a solid mass almost immediately upon cooling to 25 °C; crystallization from oily solvents ([5]; aromatic solvents, diesel and heating oils): crystallizes from oily solvents, including aromatic solvents, and diesel and heating oils; Solubility (% by Wt.) ([6]; 20° C.-25° C. (Table 12)): 25.5 % by Wt.; Solubility (% by Wt.) ([6]; -10° C. (Table 12)): 10.35 % by Wt.

**Q.** For `CCCCC(CC)COCCCNc1ccc2ccccc2c1N=Nc1ccc(N=Nc2ccccc2C)cc1C` (stereo not shown) [Example 7], which “Solubility (% by Wt.)” value ([1]; No. 1 Heating Oil, 20° C.-25° C. (Table 10)) is on record?
**A.** The value was 8.3 % by Wt.

**Q.** What about the “Solubility (% by Wt.)” value ([1]; No. 2 Heating Oil, 20° C.-25° C. (Table 11)) of the same compound?
**A.** The value was 7.7 % by Wt.

**Q.** And the “Percent Dissolved” value ([2]; No. 1 Fuel Oil, 1 Minute, aminoazotoluene dyes (Table 6))?
**A.** The value was 6.44%.

**Q.** What about the “Percent Dissolved” value ([2]; No. 1 Fuel Oil, 10 Minutes, aminoazotoluene dyes (Table 6)) of the same compound?
**A.** Its value is 7.41%.

**Q.** What about the “Percent Dissolved” value ([2]; No. 1 Fuel Oil, 20 Minutes, aminoazotoluene dyes (Table 6)) of the same compound?
**A.** The value was 8.35%.

**Q.** What about the “Percent Dissolved” value ([2]; No. 2 Fuel Oil, 1 Minute, aminoazotoluene dyes (Table 7)) of the same compound?
**A.** Its value is 6.12%.

**Q.** What about the “Percent Dissolved” value ([2]; No. 2 Fuel Oil, 10 Minutes, aminoazotoluene dyes (Table 7)) of the same compound?
**A.** Its value is 6.85%.

**Q.** And the “Percent Dissolved” value ([2]; No. 2 Fuel Oil, 20 Minutes, aminoazotoluene dyes (Table 7))?
**A.** Its value is 7.71%.

**Q.** And the “Physical State of Dye at 20° C.” value [3]?
**A.** The value was “Solid”.

**Q.** And the “Physical State of Dye” value [3]?
**A.** Its value is “Solid”.

**Q.** What about the “behavior of dye-fuel oil mixture on cooling/storage” value [4] of the same compound?
**A.** Its value is “precipitated as a solid mass almost immediately upon cooling to 25 °C”.

**Q.** And the “solubility in petroleum fuels (in words)” value [5]?
**A.** The value was “relatively low solubility in petroleum fuels”.

**Q.** What about the “Solubility (% by Wt.)” value ([6]; 20° C.-25° C. (Table 12)) of the same compound?
**A.** The value was “Complete”.

**Q.** What about the “Solubility (% by Wt.)” value ([6]; -10° C. (Table 12)) of the same compound?
**A.** The value was 20.8 % by Wt.
